Experiment [1] concerns EPO-induced JAK2 signal pathway. As to the kind of experiment: EPO-induced proliferation of UT-7 cells (JAK2 signal). Format: cell-based, human. As to conditions: Homo sapiens, UT7; UT-7 cell proliferation, EPO 10 ng/mL, 72 hours; read-out: Inhibition activity IC50 on EPO-induced JAK2 signal pathway. The method, then: The cytokine EPO, i.e. erythropoietin, can promote the proliferation and division of erythroid progenitor cells, and the signal pathway induced by EPO coupling with its receptor is mediated by JAK2-STAT5.
Human promegakaryocytic leukemia cell line UT-7 was commercially available from Cell Resource Center, Institute of Basic Medicine, Chinese Academy of Medical Sciences. The culture medium was RPIM1640 containing 10% FBS, and EPO was added for a final concentration of 10 ng/mL.
The inhibition rate of the tested compound on EPO-induced cell proliferation was calculated using Microsoft Excel.
UT-7 cell line was inoculated in 96-well plate with flat bottom at 15000 cells per well, each well was added with 10 ng/mL of human recombinant EPO (Human EPO PEPROTECH 100-64-10UG), along with tested compound respectively for a final concentration of 0, 100, 1000 or 10000 nM. After culture at 37° C. and 5% CO2 for 72 hours, alamarBlue™ Cell Viability Reagent was added to each well following the instructions. After incubation at 37° C. for color reaction, the fluorescence value at Ex530/Em590 was detected using Tecan Spark™ 10M multimode microplate reader.
The well in which neither compound nor cytokine was added was designated as […], and the fluorescence value in the wells in which the final concentration of compound was 0 was designated as 100 control. The inhibition activity […] ofthe tested compound on JAK2 could be calculated from the inhibition rate ofthe tested compound on EPO-induced cell proliferation at different doses.

Experiment [2] has as its system IL-2-induced JAK1/JAK3 signal pathway. As to the kind of experiment: IL-2-induced proliferation of KHYG-1 cells (JAK1/JAK3 signal). Format: cell-based, human. As to conditions: Homo sapiens; KHYG-1 cell proliferation, IL-2 10 ng/mL, 72 hours; read-out: Inhibition activity IC50 on IL-2-induced JAK1/JAK3 signal pathway. An excerpt: The main physiological function of cytokine IL-2 is to stimulate and maintain the proliferation and differentiation of T cells. Generally, IL-2 dependent T cells cannot survive in in-vitro culture for a long time, but the addition of IL-2 can make them continue to proliferate. The signal pathway induced by IL-2 coupling with its receptor is mediated by JAK1/JAK3-STAT5, so the inhibitor of JAK1 and/or JAK3 can inhibit the proliferation of IL-2 dependent cells.
Human natural killer cell lymphoma cell line KHYG-1 was commercially available from Health Science Research Resources Bank (HSRRB), and relevant culture conditions referred to those from HSRRB.
The inhibition rate of the tested compound on IL-2-induced cell proliferation was calculated using Microsoft Excel.
After culture at 37° C. and 5% CO2 for 72 hours, alamarBlue™ Cell Viability Reagent was added to each well following the instructions.
The well in which neither compound nor cytokine was added was designated as 0% control well, and the fluorescence value in the wells in which the final concentration of compound was 0 was designated as 100% control. The inhibition activity […] of the tested compound on JAK1/JAK3 could be calculated from the inhibition rate of the tested compound on IL-2-induced cell proliferation at different doses.

Turning to `CONC(=O)c1cnc(NC(=O)C2CC2)cc1Nc1cccn(-c2nccs2)c1=O` [Example 1, 6-(cyclopropylcarboxamido)-N-methoxy-4-((2-oxo-1-(thiazol-2-yl)-1,2-dihydropyridin-3-yl)amino)nicotinamide], the IC50 in experiment [1] and in experiment [2] was over 10 µM in each case.
Turning to `CONC(=O)c1cnc(NC(=O)C2CC2)cc1Nc1cccc(-c2nc3ccccc3n2C)c1OC` [Example 3, 6-(cyclopropylcarboxamido)-N-methoxy-4-((2-methoxy-3-(1-methyl-1H-benzo[d]imidazol-2-yl)phenyl)amino)nicotinamide], the IC50 in experiment [1] and in experiment [2] was over 10 µM each time.
Consider `CONC(=O)c1cnc(Nc2cccnc2OC)cc1Nc1ccccc1N(C)S(C)(=O)=O` [Example 5], for which the IC50 in experiment [1] and in experiment [2] was over 10 µM throughout.
For `CONC(=O)c1cnc(NC(=O)C2CC2)cc1Nc1ccc(OC)cc1N(C)S(C)(=O)=O` [Example 6, 6-(cyclopropylcarboxamido)-N-methoxy-4-((4-methoxy-2-(N-methylmethanesulfonamido)phenyl)amino)nicotinamide], the IC50 in experiment [1] and in experiment [2] was over 10 µM each time.
Take `CONC(=O)c1cnc(NC(=O)C2CC2)cc1Nc1ccc(OC)nc1N(C)S(C)(=O)=O` [Example 7, 6-(cyclopropylcarboxamido)-N-methoxy-4-((6-methoxy-2-(N-methylmethanesulfonamido)pyridin-3-yl)amino)nicotinamide]: the IC50 in experiment [1] and in experiment [2] was over 10 µM in each case.
As for `CONC(=O)c1cnc(Nc2ccc(F)cn2)cc1Nc1ccc(OC)nc1N(C)S(C)(=O)=O` [Example 8, 6-((5-fluoropyridin-2-yl)amino)-N-methoxy-4-((6-methoxy-2-(N-methylmethanesulfonamido)pyridin-3-yl)amino)nicotinamide], the IC50 in experiment [1] and in experiment [2] was over 10 µM each time.
Consider `CONC(=O)c1cnc(Nc2cccnc2OC)cc1Nc1ccc(OC)nc1N(C)S(C)(=O)=O` [Example 9, N-methoxy-4-((6-methoxy-2-(N-methylmethanesulfonamido)pyridin-3-yl)amino)-6-((2-methoxypyridin-3-yl)amino)nicotinamide], for which the IC50 in experiment [1] and in experiment [2] was over 10 µM in each case.
`CONC(=O)c1cnc(Nc2cccc(F)n2)cc1Nc1ccc(C(F)(F)F)cc1N(C)S(C)(=O)=O` [Example 11, 6-((6-fluoropyridin-2-yl)amino)-N-methoxy-4-((2-(N-methylmethanesulfonamido)-4-(trifluoromethyl)phenyl)amino)nicotinamide]: the IC50 in experiment [1] and in experiment [2] was over 10 µM throughout.
With `CONC(=O)c1cnc(Nc2ccc(F)cc2)cc1Nc1ccc(C2CC2)cc1N(C)S(C)(=O)=O` [Example 15, 4-((4-cyclopropyl-2-(N-methylmethanesulfonamido)phenyl)amino)-6-((4-fluorophenyl)amino)-N-methoxy nicotinamide], the IC50 in experiment [1] and in experiment [2] was over 10 µM each time.
Turning to `CONC(=O)c1cnc(Nc2ccc(F)cc2)cc1Nc1cccnc1N(C)S(C)(=O)=O` [Example 17, 6-((4-fluorophenyl)amino)-N-methoxy-4-((2-(N-methylmethanesulfonamido)pyridin-3-yl)amino)nicotinamide], the IC50 in experiment [1] and in experiment [2] was over 10 µM throughout.
Regarding `CC(C)ONC(=O)c1cnc(Nc2cccc(F)n2)cc1Nc1ccc(C2CC2)cc1N(C)S(C)(=O)=O` [Example 23, 4-((4-cyclopropyl-2-(N-methylmethanesulfonamido)phenyl)amino)-6-((6-fluoropyridin-2-yl)amino)-N-isopropoxy nicotinamide], the IC50 in experiment [1] and in experiment [2] was over 10 µM each time.
Take `C#Cc1ccc(Nc2cc(Nc3cccc(F)n3)ncc2C(=O)NOC(C)C)c(N(C)S(C)(=O)=O)c1` [Example 24]: the IC50 in experiment [1] and in experiment [2] was over 10 µM each time.
Regarding `CCONC(=O)c1cnc(Nc2cc(C)nc(C)n2)cc1Nc1cccc(-c2cnn(C)c2)c1OC` [Example 25, 6-((2,6-dimethylpyrimidin-4-yl)amino)-N-ethoxy-4-((2-methoxy-3-(1-methyl-1H-pyrazol-4-yl)phenyl)amino)nicotinamide], the IC50 in experiment [1] and in experiment [2] was over 10 µM each time.
Turning to `CCONC(=O)c1cnc(NC(=O)C2CC2)cc1Nc1cccc(-c2cnn(C)c2)c1OC` [Example 26, 6-(cyclopropylcarboxamido)-N-ethoxy-4-((2-methoxy-3-(1-methyl-1H-pyrazol-4-yl)phenyl)amino)nicotinamide], the IC50 in experiment [1] and in experiment [2] was over 10 µM each time.
`CCONC(=O)c1cnc(Nc2ccc(C3CC3)cn2)cc1Nc1ccccc1N(C)S(C)(=O)=O` [Example 27, 6-((5-cyclopropylpyridin-2-yl)amino)-N-ethoxy-4-((2-(N-methylmethanesulfonamido)phenyl)amino)nicotinamide]: the IC50 in experiment [1] and in experiment [2] was over 10 µM in each case.
On to `CONC(=O)c1cnc(NC(=O)C2CC2)cc1Nc1ccc2cnn(C)c2c1` [Example 28, 6-(cyclopropylcarboxamido)-N-methoxy-4-((1-methyl-1H-indazol-6-yl)amino)nicotinamide], for which the IC50 in experiment [1] and in experiment [2] was over 10 µM each time.
Turning to `CONC(=O)c1cnc(Nc2cccc(F)n2)cc1Nc1cccc(-c2ccn(C)n2)c1OC` [Example 30, 6-((6-fluoropyridin-2-yl)amino)-N-methoxy-4-((2-methoxy-3-(1-methyl-1H-pyrazol-3-yl)phenyl)amino)nicotinamide], the IC50 in experiment [1] and in experiment [2] was over 10 µM each time.
For the compound `CONC(=O)c1cnc(NC(=O)C2CC2)cc1Nc1cccc(C#N)c1OC` [Example 31, 4-((3-cyano-2-methoxyphenyl)amino)-6-(cyclopropylcarboxamido)-N-methoxy nicotinamide], the IC50 in experiment [1] and in experiment [2] was over 10 µM in each case.
As for `CONC(=O)c1cnc(NC(=O)C2CC2)cc1Nc1cccc(F)c1N(C)S(C)(=O)=O` [Example 32, 6-(cyclopropylcarboxamido)-4-((3-fluoro-2-(N-methylmethanesulfonamido)phenyl)amino)-N-methoxy nicotinamide], the IC50 in experiment [1] and in experiment [2] was over 10 µM throughout.
For the compound `CONC(=O)c1cnc(NC(=O)C2CC2)cc1Nc1cccc(C)c1N(C)S(C)(=O)=O` [Example 33, 6-(cyclopropylcarboxamido)-N-methoxy-4-((3-methyl-2-(N-methylmethanesulfonamido)phenyl)amino)nicotinamide], the IC50 in experiment [1] and in experiment [2] was over 10 µM each time.
For `CONC(=O)c1cnc(NC(=O)C2CC2)cc1Nc1ccccc1S(=O)(=O)N(C)C` [Example 34, 6-(cyclopropylcarboxamido)-4-((2-(N,N-dimethylaminosulfonyl)phenyl)amino)-N-methoxy nicotinamide], the IC50 in experiment [1] and in experiment [2] was over 10 µM each time.
Regarding `CONC(=O)c1cnc(NC(=O)C2CC2)cc1Nc1cccnc1N(C)S(C)(=O)=O` [Example 35, 6-(cyclopropylcarboxamido)-N-methoxy-4-((2-(N-methylmethanesulfonamido)pyridin-3-yl)amino)nicotinamide], the IC50 in experiment [1] and in experiment [2] was over 10 µM throughout.
For `N#CC[C@H](C1CCCC1)n1cc(-c2ncnc3[nH]ccc23)cn1` [ruxolitinib, reference compound], in experiment [1], the IC50 is under 0.1 µM.

For the origin of these results see US20240101548A1, “HYDROXAMATE COMPOUND, PREPARATION METHOD THEREFOR AND APPLICATION THEREOF” (SHENZHEN CHIPSCREEN BIOSCIENCES CO., LTD., priority 2020, published 2024).
